Measured values as given in ChEMBL document CHEMBL5126549, “Overview of SIRT5 as a potential therapeutic target: Structure, function and inhibitors” (Eur J Med Chem, 2022).
One block for each compound: values may come before it. *1 amine or outer side, *2 acyl side, *3 side chain or, on linkers, in order; H or OH if unused. Where a SMILES comes first, the peptide text is derived from it. Bridges are numbered along the chain shown (N, C = ends). [ ]: non-standard residue; d: D form. X1 = O=C(O)CCNC(=S)NCCCC[C@H](N[*:1])C(=O)[*:2]; Suberoyl = O=C(CCCCCCC(=O)[*:2])[*:1]

Tests used:
[1] = target: T1, NAD-dependent protein deacetylase sirtuin-1 (Homo sapiens, UniProt Q96EB6); experiment: Inhibition of human N-terminal His6 tagged SIRT1 (183-505-(GGGS)2-641-665 residues) expressed in Escherichia coli BL21 cells
T1 sequence (Q96EB6 whole entry): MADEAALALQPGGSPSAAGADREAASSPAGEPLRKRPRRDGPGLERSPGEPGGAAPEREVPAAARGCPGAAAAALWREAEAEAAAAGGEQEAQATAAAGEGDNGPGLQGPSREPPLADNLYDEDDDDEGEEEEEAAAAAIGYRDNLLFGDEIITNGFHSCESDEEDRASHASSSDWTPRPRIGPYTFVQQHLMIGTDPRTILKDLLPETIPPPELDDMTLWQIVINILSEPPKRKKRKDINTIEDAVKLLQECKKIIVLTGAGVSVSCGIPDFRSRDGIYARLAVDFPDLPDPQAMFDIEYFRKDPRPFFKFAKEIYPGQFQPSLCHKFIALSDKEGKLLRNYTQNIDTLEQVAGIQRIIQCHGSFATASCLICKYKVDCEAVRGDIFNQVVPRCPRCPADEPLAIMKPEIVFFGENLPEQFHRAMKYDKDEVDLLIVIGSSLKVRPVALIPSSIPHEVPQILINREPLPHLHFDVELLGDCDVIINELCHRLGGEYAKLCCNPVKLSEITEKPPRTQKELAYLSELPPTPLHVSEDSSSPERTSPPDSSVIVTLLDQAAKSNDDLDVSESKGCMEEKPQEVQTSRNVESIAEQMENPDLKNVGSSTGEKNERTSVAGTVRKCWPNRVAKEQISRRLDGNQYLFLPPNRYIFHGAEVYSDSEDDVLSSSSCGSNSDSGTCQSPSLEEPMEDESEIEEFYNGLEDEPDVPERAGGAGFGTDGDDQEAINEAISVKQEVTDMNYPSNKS

[2] = target: T2, NAD-dependent protein deacetylase sirtuin-3, mitochondrial (Homo sapiens, UniProt Q9NTG7); experiment: Inhibition of human SIRT3 (118 to 399 aa) expressed in Escherichia coli BL21 cells
T2 sequence (Q9NTG7 whole entry): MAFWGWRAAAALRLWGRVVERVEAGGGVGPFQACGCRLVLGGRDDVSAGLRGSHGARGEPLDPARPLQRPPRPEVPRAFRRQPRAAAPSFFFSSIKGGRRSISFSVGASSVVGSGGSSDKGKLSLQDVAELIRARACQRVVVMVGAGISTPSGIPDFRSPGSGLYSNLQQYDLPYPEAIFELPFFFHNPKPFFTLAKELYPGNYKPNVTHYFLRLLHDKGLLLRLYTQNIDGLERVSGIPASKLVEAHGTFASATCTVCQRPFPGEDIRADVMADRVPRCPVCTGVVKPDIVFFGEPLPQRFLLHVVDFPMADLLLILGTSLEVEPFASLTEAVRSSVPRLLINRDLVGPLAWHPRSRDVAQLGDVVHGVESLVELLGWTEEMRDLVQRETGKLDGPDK

[3] = target: T3, NAD-dependent protein deacylase sirtuin-5, mitochondrial (Homo sapiens, UniProt Q9NXA8); experiment: Inhibition of SIRT5 (unknown origin)
Target sequence in this assay (Q9NXA8 whole entry): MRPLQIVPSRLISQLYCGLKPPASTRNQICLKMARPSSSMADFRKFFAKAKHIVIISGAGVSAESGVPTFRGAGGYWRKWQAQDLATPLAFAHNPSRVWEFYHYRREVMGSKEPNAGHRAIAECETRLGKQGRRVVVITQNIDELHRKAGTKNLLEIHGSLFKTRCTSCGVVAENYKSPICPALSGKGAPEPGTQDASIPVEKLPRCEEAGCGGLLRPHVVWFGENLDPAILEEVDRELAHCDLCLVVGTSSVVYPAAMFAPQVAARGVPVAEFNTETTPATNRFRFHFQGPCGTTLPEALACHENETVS

[4] = target: T1, NAD-dependent protein deacetylase sirtuin-1; experiment: Inhibition of SIRT1 (unknown origin)
[5] = target: T4, NAD-dependent protein deacetylase sirtuin-2 (Homo sapiens, UniProt Q8IXJ6); experiment: Inhibition of SIRT2 (unknown origin)
T4 sequence (Q8IXJ6 whole entry): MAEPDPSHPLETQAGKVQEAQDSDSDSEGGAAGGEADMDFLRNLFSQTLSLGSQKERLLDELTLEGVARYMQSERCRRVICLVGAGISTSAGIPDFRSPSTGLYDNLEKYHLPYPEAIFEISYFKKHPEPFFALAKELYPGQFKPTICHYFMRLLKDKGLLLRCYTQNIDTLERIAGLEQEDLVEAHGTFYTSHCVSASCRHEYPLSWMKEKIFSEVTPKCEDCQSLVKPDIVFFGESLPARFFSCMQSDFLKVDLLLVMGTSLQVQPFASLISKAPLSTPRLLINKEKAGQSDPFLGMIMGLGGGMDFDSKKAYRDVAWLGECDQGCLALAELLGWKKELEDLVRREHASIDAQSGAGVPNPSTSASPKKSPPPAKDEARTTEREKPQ

[6] = target: T3, NAD-dependent protein deacylase sirtuin-5, mitochondrial; experiment: Inhibition of human recombinant SIRT5 using Benzyl-Lys(succinyl)-AMC as substrate incubated for 2 hrs by fluorescence based assay
Target sequence in this assay (Q9NXA8 whole entry): as the sequence (Q9NXA8 whole entry) above

[7] = target: T3, NAD-dependent protein deacylase sirtuin-5, mitochondrial; experiment: Inhibition of GST-tagged SIRT5 (unknown origin) incubated for 5 mins by HPLC based analysis
Target sequence in this assay (Q9NXA8 whole entry): as the sequence (Q9NXA8 whole entry) above

[8] = target: T3, NAD-dependent protein deacylase sirtuin-5, mitochondrial; experiment: Inhibition of GST-tagged SIRT5 (unknown origin) incubated for 10 mins by HPLC based analysis
Target sequence in this assay (Q9NXA8 whole entry): as the sequence (Q9NXA8 whole entry) above

[9] = target: T3, NAD-dependent protein deacylase sirtuin-5, mitochondrial; experiment: Inhibition of SIRT5 (unknown origin) at 30 uM relative to control
Target sequence in this assay (Q9NXA8 37-310 limits assumed): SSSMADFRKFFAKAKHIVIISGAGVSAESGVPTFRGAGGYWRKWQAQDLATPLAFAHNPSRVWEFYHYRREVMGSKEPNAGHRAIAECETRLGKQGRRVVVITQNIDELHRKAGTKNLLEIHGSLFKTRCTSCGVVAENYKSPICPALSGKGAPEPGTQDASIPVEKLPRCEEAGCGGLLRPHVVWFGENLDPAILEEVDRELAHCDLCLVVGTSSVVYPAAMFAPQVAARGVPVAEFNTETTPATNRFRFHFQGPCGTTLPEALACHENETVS

[10] = target: T3, NAD-dependent protein deacylase sirtuin-5, mitochondrial; experiment: Inhibition of SIRT5 (unknown origin) at 100 uM relative to control
Target sequence in this assay (Q9NXA8 37-310 limits assumed): as above

Compound: CCn1c(=O)n(CC(C)C)c(=O)c2[nH]c(SSc3nc4c([nH]3)c(=O)n(CC(C)C)c(=O)n4CC)nc21
- IC50 [1]: 1.77 µM
- IC50 [2]: 0.43 µM

Compound: CC1=NN(c2ccc(C)c(Cl)c2)C(=O)/C1=C\c1ccc(-c2ccc(C(=O)O)cc2)o1
- IC50 [6]: 18.3 µM

Compound: CC(=O)N[C@H]1CCCCNC(=O)CNC(=O)CCCCCCC(=O)NC(=O)NCCCC[C@@H](C(=O)N[C@H](C(N)=O)[C@@H](C)O)NC(=O)[C@H](CCCCNC(=S)NCCC(=O)O)NC(=O)[C@H](CCCNC(=N)N)NC1=O
- IC50 [7]: 6 µM

Compound: N#C/C(=C\c1ccc(-c2ccc(C(=O)O)cc2)o1)C(=O)Nc1ccc(C#N)c(F)c1
- IC50 [6]: 5.9 µM

Compound: N=C(N)NCCCC[C@@H]1NC(=O)CCCCCCC(=O)NCCCC[C@@H](C(N)=O)NC(=O)[C@H](CCCCNC(=S)NCCC(=O)O)NC1=O
- IC50 [3]: 13.2 µM

Compound: CC(=O)N[C@H]1CCCCNC(=O)CCCCCCC(=O)NCCCC[C@@H](C(=O)N[C@H](C(N)=O)[C@@H](C)O)NC(=O)[C@H](CCCCNC(=S)NCCC(=O)O)NC(=O)[C@H](CCCNC(=N)N)NC1=O (Ac-KR[X1]KT-NH2; linker 1-4 via Suberoyl)
- IC50 [7]: 7 µM

Compound: N#C/C(=C\c1ccc(-c2ccc(C(=O)O)cc2)o1)C(=O)Nc1ccc(Cl)c([N+](=O)[O-])c1
- IC50 [6]: 9.26 µM

Compound: O=C(NCCn1c2ccccc2c2ccccc21)Nc1ccc(C(=O)O)cc1
- inhibition [9]: 35%
- inhibition [10]: 52%

Compound: CC1(C)CC[C@]2(C(=O)O)CC[C@]3(C)C(=CC[C@@H]4[C@@]5(C)CC[C@H](O)C(C)(C)[C@@H]5CC[C@]43C)[C@@H]2C1 [OLEANOLIC_ACID]
- IC50 [3]: 70 µM

Compound: CNC(=O)c1cccc(NC(=O)/C(C#N)=C/c2ccc(-c3ccc(C(=O)O)cc3)o2)c1
- IC50 [6]: 8 µM

Compound: CC1(C)CC[C@]2(C(=O)O)[C@H](O)C[C@]3(C)C(=CC[C@@H]4[C@@]5(C)CC[C@H](O)C(C)(C)[C@@H]5CC[C@]43C)[C@@H]2C1
- IC50 [3]: 40 µM

Other lines, results leading:

- IC50 [3]: 5 µM
- IC50 [4]: 256 µM
- IC50 [5]: 256 µM
Compound: O=C(O)CC(=S)NCCCC[C@H](NC(=O)OCc1ccccc1)C(=O)Nc1ccccc1

- IC50 [8]: < 15 µM
Compound: CC(=O)NC(CCCCNC(=S)NCCC(=O)O)C(=O)Nc1cccc(O)c1 (stereo unspecified)

- IC50 [8]: < 15 µM
Compound: O=C(O)CCNC(=S)NCCCCC(NC(=O)OCc1ccccc1)C(=O)Nc1ccccc1O (stereo unspecified)

- IC50 [3]: 2.2 µM
Compound: N=C(N)NCCCC[C@@H]1NC(=O)CCC(=O)NCCCC[C@@H](C(N)=O)NC(=O)[C@H](CCCCNC(=S)NCCC(=O)O)NC1=O

- IC50 [3]: 0.11 µM
Compound: O=C(O)CCNC(=S)NCCCC[C@H](NS(=O)(=O)c1cccc(F)c1)C(=O)N[C@@H](Cc1c[nH]c2ccccc12)C(=O)NC1CCCC1

- IC50 [3]: < 0.3 µM
Compound: O=C(O)CCNC(=S)NCCCC[C@H](NS(=O)(=O)c1cccc(F)c1)C(=O)N[C@@H](Cc1c[nH]c2ccccc12)C(=O)NC1CCC1

- IC50 [8]: < 15 µM
Compound: O=C(O)CCNC(=S)NCCCCC(NC(=O)OCc1ccccc1)C(=O)Nc1ccc(O)cc1 (stereo unspecified)

- IC50 [3]: < 0.3 µM
Compound: O=C(O)CCNC(=S)NCCCC[C@H](NS(=O)(=O)c1cccc(F)c1)C(=O)N[C@@H](Cc1c[nH]c2ccccc12)C(=O)NC1CC1

- IC50 [3]: 6.5 µM
Compound: N=C(N)NCCCC[C@@H]1NC(=O)CCCCC(=O)NCCCC[C@@H](C(N)=O)NC(=O)[C@H](CCCCNC(=S)NCCC(=O)O)NC1=O

- IC50 [8]: < 15 µM
Compound: CC(C)(C)OC(=O)NC(CCCCNC(=S)NCCC(=O)O)C(=O)Nc1cccc(O)c1 (stereo unspecified)

- IC50 [3]: 4 µM
Compound: N=C(N)NCCCC[C@@H]1NC(=O)CCNC(=O)CCC[C@@H](C(N)=O)NC(=O)[C@H](CCCCNC(=S)NCCC(=O)O)NC1=O
